From BindingDB's records for doi:10.7270/Q2H993J6 (Pcmd, 2008)

Target: Coagulation factor XI (Homo sapiens, UniProt P03951)
Experiment: factor XIa inhibitor concentration-response – biochemical, hits from 1536-well screen, dose response (AID 846)
Details: pH 7.4; 23 °C

Sequence of Coagulation factor XI (P03951 19-387 limits assumed): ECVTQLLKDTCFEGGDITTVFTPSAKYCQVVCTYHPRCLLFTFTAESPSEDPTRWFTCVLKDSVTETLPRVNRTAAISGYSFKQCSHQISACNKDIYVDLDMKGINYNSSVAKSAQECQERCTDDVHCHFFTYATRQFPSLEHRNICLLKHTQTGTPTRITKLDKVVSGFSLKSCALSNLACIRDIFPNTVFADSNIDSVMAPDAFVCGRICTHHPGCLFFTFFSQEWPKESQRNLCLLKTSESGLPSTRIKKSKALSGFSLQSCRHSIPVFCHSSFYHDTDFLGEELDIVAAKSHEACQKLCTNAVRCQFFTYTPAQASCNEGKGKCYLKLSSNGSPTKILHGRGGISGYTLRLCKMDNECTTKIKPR
Sequence of Coagulation factor XI (P03951 388-625 limits assumed): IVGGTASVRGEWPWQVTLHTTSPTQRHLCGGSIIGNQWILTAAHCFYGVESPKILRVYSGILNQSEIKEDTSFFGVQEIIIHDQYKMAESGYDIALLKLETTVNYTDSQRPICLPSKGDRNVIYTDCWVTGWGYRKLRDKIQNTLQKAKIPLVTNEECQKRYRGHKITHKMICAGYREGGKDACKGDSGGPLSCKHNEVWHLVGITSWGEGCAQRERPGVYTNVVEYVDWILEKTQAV

IC50 | Compound
> 50 µM | CCC1CCC2(CC1)SCC(=O)N2c1ccccc1 (centres undefined) [SMR000425321]
> 50 µM | COc1ccc(CN(Cc2ccc(OC)cc2)C(=O)c2cccs2)cc1 [MLS000860276]
> 50 µM | CC(=O)c1ccc(NC(=O)C(Cl)=Cc2ccccc2)cc1 [(Z)-N-(4-acetylphenyl)-2-chloro-3-phenyl-2-propenamide]
> 50 µM | NS(=O)(=O)c1ccc(CCNC(=O)Cc2ccccc2[N+](=O)[O-])cc1 [MLS000689902]
